According to patent US20260240158A1, “MICROBIOCIDAL THIAZOLE DERIVATIVES” (SYNGENTA CROP PROTECTION AG, priority 2019, published 2026):
Like-named read-outs stand apart in the source and are kept apart here.

Columns and labels:
[1] = tested on: Mycosphaerella graminicola (Septoria tritici); assay: Mycosphaerella graminicola (Septoria tritici) / liquid culture (Septoria blotch); assay type: cell-based; conditions: Zymoseptoria tritici, read-out: control of Mycosphaerella graminicola
[2] = tested on: Phaeosphaeria nodorum (Septoria nodorum); assay: Phaeosphaeria nodorum (Septoria nodorum) / wheat / leaf disc preventative (glume blotch); assay type: in vivo; conditions: 200 ppm, 5-7 days after application, vs untreated control
From the text: Phaeosphaeria Nodorum (Septoria nodorum)/Wheat/Leaf Disc Preventative (Glume Blotch) Wheat leaf segments cv. […] The leaf disks are inoculated with a spore suspension of the fungus 2 days after application. […] P3.

Pyrenophora teres = Pyrenophora teres / barley / leaf disc preventative (net blotch); assay type: in vivo; conditions: 200 ppm, 5-7 days after application, vs untreated control
From the text: Pyrenophora teres/Barley/Leaf Disc Preventative (Net Blotch) Barley leaf segments cv. […] The leaf segments are inoculated with a spore suspension of the fungus 2 days after application. […] P5.

[3] = 20 ppm, liquid culture, growth inhibition photometrically 4-5 days after application, vs untreated control

**Q.** `CCCCNC(=O)c1nc(Nc2cnsc2)sc1C` [Compound P1, N-butyl-2-(isothiazol-4-ylamino)-5-methyl-thiazole-4-carboxamide] was tested. Which inhibition of growth at 20 ppm [1, 3] did it give?
**A.** ≥ 80%

**Q.** `Cc1sc(Nc2cnsc2)nc1C(=O)NCC(C)(C)C` [Compound P2, N-(2,2-dimethylpropyl)-2-(isothiazol-4-ylamino)-5-methyl-thiazole-4-carboxamide] was tested. Which inhibition of growth at 20 ppm [1, 3] did it give?
**A.** ≥ 80%

**Q.** Which “control of Phaeosphaeria nodorum” value [2] does the source give for `Cc1sc(Nc2cnsc2)nc1C(=O)NCCC(C)C` [Compound P3, N-isopentyl-2-(isothiazol-4-ylamino)-5-methyl-thiazole-4-carboxamide] here?
**A.** at least 80%

**Q.** What about the inhibition of growth at 20 ppm [1, 3] of the same molecule?
**A.** ≥ 80%

**Q.** Which inhibition of growth at 20 ppm [1, 3] does the source give for `Cc1sc(Nc2cnsc2)nc1C(=O)NC(C)c1ccccc1` (stereo not shown) [Compound P4, 2-(isothiazol-4-ylamino)-5-methyl-N-(1-phenylethyl) thiazole-4-carboxamide] here?
**A.** ≥ 80%

**Q.** Which results are given for `Cc1sc(Nc2cnsc2)nc1C(=O)NC1CCC12CCCC2` (stereo not shown) [Compound P5, 2-(isothiazol-4-ylamino)-5-methyl-N-spiro 3.4 octan-3-yl-thiazole-4-carboxamide]?
**A.** control of Pyrenophora teres (Pyrenophora teres): at least 80%; inhibition of growth at 20 ppm [1, 3]: ≥ 80%

**Q.** `Cc1sc(Nc2cnsc2)nc1C(=O)NC1CCC1(C)C` (stereo not shown) [Compound P6, N-(2,2-dimethylcyclobutyl)-2-(isothiazol-4-ylamino)-5-methyl-thiazole-4-carboxamide] was tested. Which inhibition of growth at 20 ppm [1] did it give?
**A.** ≥ 80%

**Q.** How did the inhibition of growth at 20 ppm [1, 3] turn out when `COCC(=O)N(c1cnsc1)c1nc(C(=O)NC2CCC23CCCC3)c(C)s1` (stereo not shown) [Compound P8, 2-isothiazol-4-yl-(2-methoxyacetyl) amino-5-methyl-N-spiro 3.4 octan-3-yl-thiazole-4-carboxamide] was run?
**A.** ≥ 80%

**Q.** For `Cc1sc(N(C#N)c2cnsc2)nc1C(=O)NC1CCC12CCCC2` (stereo not shown) [Compound P9, 2-cyano(isothiazol-4-yl)amino-5-methyl-N-spiro 3.4 octan-3-yl-thiazole-4-carboxamide], which inhibition of growth at 20 ppm [1, 3] is on record?
**A.** ≥ 80%
